Measured values reported in patent publication US20260166021A1, “POLYMORPHIC FORMS OF A SOLUBLE EPOXIDE HYDROLASE INHIBITOR AND FORMULATIONS THEREOF” (EicOsis, LLC, priority 2022, published 2026).

Tests used:
[1] = PEG-stability analyses: Form C/Form D mixture slurried in PEG300 with water; assay type: physicochemical; conditions: H2O:PEG 300 = 50%:50%
Protocol: Of particular interest was whether Form D would convert to a hydrate (e.g., Form C) in the presence of water. To investigate the critical water concentration for phase interconversion between Pattern C and D, a series experiments were designed (as summarized in TABLE 16). A 1:1 mixture of Forms C and D was prepared and slurried in PEG 300 with different levels of water concentrations. Phase transformations were monitored with XRD, and are summarized in FIG. 85, which (from top to bottom) provides XRD of Form C, Form D, the mixture following incubation in PEG300 containing 75% water, the mixture following incubation in PEG300 containing 50% water, the mixture following incubation in PEG300 containing 25% water, the mixture following incubation in PEG300 containing 10% water, and the mixture following incubation in PEG300 containing 5% water. […] Form D is the stable form in PEG300 with less than 50% water.

[2] = Thermal gravimetric analysis (TGA); assay type: physicochemical; conditions: for TGA: wt change: below 150° C.; for wt change at 233° C. / wt change below 100° C.: TGA thermogram of lot
Protocol: Thermal gravimetric analyses were performed on each sample “as is.” Unless otherwise noted, samples were weighed in an alumina crucible and analyzed from 30-350° C. at 10° C./min.
Form C weight loss at 39° C.-50° C. likely reflected methanol loss.

[3] = Differential scanning calorimetry (DSC): heat of fusion, thermal events; assay type: physicochemical; conditions: for thermodynamic stability (from heat of fusion) / Heat of fusion: DSC; for thermodynamic stability (from heat of fusion): TABLE 10; for Heat of fusion: scaled-up polymorphs, measured during conversion from Form C
Protocol: Differential scanning calorimetry analyses were performed on each sample “as is.” Unless otherwise specified, samples were weighed in an aluminum pan, covered with a pierced lid, and then crimped and analyzed from 30-300° C. ramped at 10° C./min.
The DSC data were used to determine the heat of fusion for Forms A, B, D, and F, based on their heats of fusion as measured during conversion from Form C.

[4] = Competitive slurry experiments (solvent-mediated polymorph transformation, XRD); assay type: physicochemical; conditions: room temperature, 1 and 7 days
Protocol: Polymorph stability and interconversions were analyzed with competitive slurry experiments. The competitive slurry (solvent-mediated transformation) experiments were performed on Forms A, B, D, E, F, G, and I generated through scaled-up crystallization (summarized in TABLE 11). […] The suspensions were aliquoted at one day and seven days and filtered to isolate the solids. Remaining solid was analyzed by XRD without drying.
In FIG. 66, the second spectrum from the top corresponds to Form E. These XRD data confirmed that Patterns C, K, and D were afforded in these solvents.
In order to further confirm the rank of stability order of the selected forms and extend the temperature range of stability relationship up to 70° C. covering potential API process conditions, binary form slurries were conducted with starting mixtures of (1) Forms A and D, and (2) Forms D and E. The resultant polymorphs were characterized with XRD after 1 and 7 days, the results of which analyses are shown in FIGURE S 67-68 and summarized in TABLE 13. Pattern D stood out from both binary mixture slurries of A & D and of D & E after seven-day stirring at the elevated temperature.
Additional single form slurry experiments were conducted on Forms A, D, and E in either water or heptane at room temperature. […] In agreement with prior competitive slurry experiments, Form D was stable at room temperature in n-heptane. Pattern E was obtained from slurries starting with Forms A and E in n-heptane. As expected, Form C was formed from the Pattern E slurry in water.

[5] = Thermal stress studies at 60° C. (XRD, HPLC); assay type: physicochemical; conditions: for Day 1 % AUC / Day 7 % AUC / Initial % AUC: HPLC; for Initial % AUC: before thermal stress
Protocol: Briefly, 20 mg of solid Form A, B, C, D, E, F, G, and I were weighed into 7 mL glass vials. The vials were covered with tissue and stored in ovens set to 60° C. and ambient pressure. Following 1 and 7 days incubation, solid was collected for XRD analysis.
As shown in these figures, Forms B and C converted to Forms D and A, respectively, while the other forms remained unchanged.
The starting materials, intermediates (1 day of thermal stress), and products (7 days of thermal stress) were analyzed by H PLC. Representative chromatograms from the Form D thermal stress analyses are shown in FIGS. 81-83 (starting material, 1 day, and 7 day samples, respectively).

[6] = Crystallization of Formula (I) in single- and binary-solvent systems (resultant XRD pattern)
Protocol: Formula (I) crystallization was first analyzed in single-solvent systems lacking antisolvent. […] Fast cooling was performed by placing the vials in a 4° C. refrigerator for 24 hours, while slow cooling was performed by decreasing the temperatures of the vials by 20° C./h with stirring. The resulting solids were isolated by centrifuge filtration through […] centrifuge filters. When solids were not produced, the solution was evaporated under nitrogen as an additional attempt to obtain solid. All obtained solids were analyzed by XRD to determine the solid pattern.
Formula (I) recrystallization was then tested with binary-solvent systems containing water, n-heptane, or c-hexane as antisolvent. […] Anti solvents were added drop-wise at the same temperature until precipitate was observed or the vial volume was reached (˜7 mL). The vials were quickly cooled to 4° C. or slowly cooled by 20° C./hour as in the single-solvent recrystallizations. The resulting solids were isolated by centrifuge filtration. The samples without precipitation were evaporated to dryness under a gentle stream of nitrogen gas as an additional attempt to obtain solid. All obtained solids were analyzed by XRD to determine the solid form. […]

[7] = Particle size analysis (Malvern particle sizer, dry method; optical microscopy); assay type: physicochemical; conditions: for Size range / birefringence / crystal shape: polarized-light microscopic images
Protocol: Particle size was first analyzed with optical microscopy.
Particle size was also analyzed with a dry-method using a Malvern 300 particle sizer equipped with a standard energy venturi and utilizing 2.5 bar, 3.0 bar, and 3.5 bar air pressure. […] One possible explanation is that the insufficient energy was provided to break up particle agglomerations.
Based on these findings, particle size analysis was repeated at 2.5, 3.0, and 3.5 bar using a higher energy venturi to ensure the break-up of the potential agglomerates. The detailed particle sizing data using high-energy venturi are summarized in TABLE 26 and in FIGS. 114-119, with FIGS. 114-116 corresponding to 2.5, 3.0, and 3.5 bar analyses of unmilled Form D and FIGS. 117-119 corresponding to 2.5, 3.0, and 3.5 bar analyses of micronized Form D, respectively. While the data remained bimodal, indicating incomplete break-up of particle agglomerates, the D90 of micronized material measured below 6 μm, in closer agreement with the optical analyses.

[8] = Moisture-sorption analysis (DVS); assay type: physicochemical; conditions: dynamic vapor sorption
Protocol: Gravimetric moisture sorption experiment was performed on all materials by first holding the sample at 40% RH and 25° C. until an equilibrium weight was reached or for a maximum of 4 h. The sample was then subjected to an isothermal (25° C.) adsorption scan from 40% to 90% R H in steps of 10% RH. The sample was allowed to equilibrate to an asymptotic weight at each point for a maximum of 4 h. Following adsorption, a desorption scan from 90% to 0% RH (at 25° C.) was run in steps of −10% R H allowing a maximum of 4 h for equilibration to an asymptotic weight. An adsorption scan was then performed from 0% RH to 40% RH in steps of +10% R H. The sample was then dried for more than 2 h at 60° C. 0% R H and the resulting solid analyzed by XRD.
FIGS. 88-92 provide physical analyses of lot 1. […] FIG. 90 provides a modulated DSC thermogram of lot 1, and identifies a glass transition temperature midpoint of around 48.5° C. […] FIG. 92 provides dynamic vapor sorption plots of lot 1, indicating 2.49 weight percent water vapor adsorption at 90% relative humidity, 1.25 weight percent water vapor adsorption at 60% relative humidity, and close to complete water vapor desorption at 0% relative humidity.
FIG. 95 provides polarized-light microscope images of lot 2 at 200× magnification, with 50 and 100 μm scales shown. […] FIG. 96 provides dynamic vapor sorption plots of lot 2, indicating 3.99 weight percent water vapor adsorption at 60% relative humidity, 4.12 weight percent water vapor adsorption at 90% relative humidity, and close to complete water vapor desorption at 0% relative humidity.

[9] = Bulk and tapped density (tap density tester); assay type: physicochemical; conditions: listed as micronixed form
From the text: Before milling, Form D was screened through a 30-micron mesh sieve. Then, Form D micronized using a 2-inch jet mill 70 psig feed pressure, 40 psig grinding pressure, and a 4.3 g/min powder feed rate. The micronization process provided a 69% yield and 95.6% crystallinity relative to the unmilled material.

## CC[C@H](C)C(=O)N1CCC(NC(=O)Nc2ccc(OC(F)(F)F)c(F)c2)CC1 [C (50%) + D (50%)]
[1]
  XRD Pattern at Equilibrium: C (major) + D (minor)

## CC[C@H](C)C(=O)N1CCC(NC(=O)Nc2ccc(OC(F)(F)F)c(F)c2)CC1 [Form A, (S)-1-(3-fluoro-4-(trifluoromethoxy)phenyl)-3-(1-(2-methylbutanoyl)piperidin-4-yl)urea]
[2]
  TGA: wt change: No wt change below
[3]
  DSC Thermal Events, Endo: melting of pattern A: 113 °C melting of pattern A
  DSC Thermal Events, Endo: melting of pattern D: 141 °C melting of pattern D (shoulder)
  DSC Thermal Events, Endo: melting of pattern F: 148 °C meting of patter F
  DSC Thermal Events, Exo: crystallization of pattern D: 127 °C crystallization of pattern D
  DSC Thermal Events, Exo: crystallization of pattern F: 117 °C crystallization of pattern
  thermodynamic stability (from heat of fusion): thermodynamically stable
  Heat of fusion: 29.73
[4]
  single form slurry in n-heptane: resultant polymorph: Pattern E
[5]; 60° C.
  Day 1 % AUC: 100%
  Day 7 % AUC: 100%
[5]
  Initial % AUC: 100%

## CC[C@H](C)C(=O)N1CCC(NC(=O)Nc2ccc(OC(F)(F)F)c(F)c2)CC1 [Form B, (S)-1-(3-fluoro-4-(trifluoromethoxy)phenyl)-3-(1-(2-methylbutanoyl)piperidin-4-yl)urea]
[2]
  TGA: wt change: No wt change below
[3]
  DSC Thermal Events, Endo: melting of pattern B: 146 °C melting of pattern B
  DSC Thermal Events, Endo: melting of pattern D: 141 °C melting of pattern D
  thermodynamic stability (from heat of fusion): thermodynamically stable
[3]; listed as B
  Heat of fusion: 53.14
[5]; 60° C., following one day of incubation
  conversion to Form D: 100%

## CC[C@H](C)C(=O)N1CCC(NC(=O)Nc2ccc(OC(F)(F)F)c(F)c2)CC1 [Form E, (S)-1-(3-fluoro-4-(trifluoromethoxy)phenyl)-3-(1-(2-methylbutanoyl)piperidin-4-yl)urea]
[4]
  single form slurry in n-heptane: resultant polymorph: Pattern E
[4]; water
  single form slurry in water: resultant polymorph: Form C

## CC[C@H](C)C(=O)N1CCC(NC(=O)Nc2ccc(OC(F)(F)F)c(F)c2)CC1 [Form F, (S)-1-(3-fluoro-4-(trifluoromethoxy)phenyl)-3-(1-(2-methylbutanoyl)piperidin-4-yl)urea]
[3]
  DSC Thermal Events, Endo: melting of pattern F: 150 °C melting of pattern F
[3]; listed as F
  Heat of fusion: 57.06
[5]; 60° C.
  Day 1 % AUC: 100%
  Day 7 % AUC: 100%
[5]
  Initial % AUC: 100%

## CC[C@H](C)C(=O)N1CCC(NC(=O)Nc2ccc(OC(F)(F)F)c(F)c2)CC1 [Formula (I) Form C]
[6]; Acetone (0.1)/n-Heptane (0.4), 50° C., Slow, ppt/evaporate
  Formula (I) Product Form: B + E
[6]; DMSO (0.1)/Water (0.05), 70° C., Slow, ppt/filtered
  Formula (I) Product Form: D + F
[6]; EtOH (0.1)/c-Hexane (6), 70° C., Slow, clear/
  Formula (I) Product Form: F + H
[6]; IPA (0.1)/c-Hexane (2), 70° C., Fast, ppt/filtered
  Formula (I) Product Form: H + F
[6]; NMP (0.1)/c-Hexane (6), 70° C., Slow, clear/evaporate
  Formula (I) Product Form: D + F

## CC[C@H](C)C(=O)N1CCC(NC(=O)Nc2ccc(OC(F)(F)F)c(F)c2)CC1 [G]
[3]
  DSC Thermal Events, Endo: melting of pattern G: 143 °C melting of pattern G
[5]; 60° C., ambient pressure
  Day 7 XRD: G/L

## CC[C@H](C)C(=O)N1CCC(NC(=O)Nc2ccc(OC(F)(F)F)c(F)c2)CC1 [lot 1]
[2]
  wt change at 233° C.: 99% wt change
  wt change below 100° C.: 0% wt change
[3]; DSC thermogram of lot
  Endotherm (likely dehydration of bound water): 63 °C
  Exotherm (crystallization of Form B): 115 °C (crystallization of
[7]
  Size range: Size range; 5-80 μm;
  birefringence: Birefringent
  crystal shape: Irregular plate;
[8]
  water vapor adsorption at 60% RH: 60% RH 1.25 wt %
  water vapor adsorption at 90% RH: 90% RH 2.49 wt %

## CC[C@H](C)C(=O)N1CCC(NC(=O)Nc2ccc(OC(F)(F)F)c(F)c2)CC1 [lot 2]
[2]
  wt change at 233° C.: 96% wt change
  wt change below 100° C.: 2.9% wt change
[3]; DSC thermogram of lot
  Endotherm (likely dehydration of bound water): 79 °C (likely dehydration of
  Endotherm (melting of Form A): 111 °C (melting of Form A),
  Exotherm (crystallization of Form B): 117 °C (crystallization of
[7]
  Size range: Size range; 5-200 μm;
  birefringence: Birefringent
  crystal shape: Irregular plate;
[8]
  water vapor adsorption at 60% RH: 60% RH 3.99 wt %
  water vapor adsorption at 90% RH: 90% RH 4.12 wt %

## CC[C@H](C)C(=O)N1CCC(NC(=O)Nc2ccc(OC(F)(F)F)c(F)c2)CC1 [micronized Form D, (S)-1-(3-fluoro-4-(trifluoromethoxy)phenyl)-3-(1-(2-methylbutanoyl)piperidin-4-yl)urea]
[9]
  bulk density: 0.20 g/mL
  tapped density: 0.22 g/mL
[7]; higher energy venturi, 2.5, 3.0 and 3.5 bar
  D90 particle size: below 6 μm
